Measurements: publication PMC7251097, “Aspartate/asparagine-β-hydroxylase: a high-throughput mass spectrometric assay for discovery of small molecule inhibitors” (Scientific Reports, 2020)
Entries after “also recorded” stand apart in the source; their conditions may differ. Structures can show the parent of a compound that is named as a salt. Where two headings read alike, the source gives them in different places.

Molecular target: T1, His6-AspH315–758 (human aspartate/asparagine-β-hydroxylase, AspH) (Homo sapiens, UniProt Q12797)
T1 construct: N-Terminally His6-tagged human AspH315–758 (His6-AspH315–758) was produced in E. coli BL21 (DE3) cells; made in house; host or cells: E. coli BL21 (DE3), pET-28a(+) vector
T1 sequence (Q12797 315-758): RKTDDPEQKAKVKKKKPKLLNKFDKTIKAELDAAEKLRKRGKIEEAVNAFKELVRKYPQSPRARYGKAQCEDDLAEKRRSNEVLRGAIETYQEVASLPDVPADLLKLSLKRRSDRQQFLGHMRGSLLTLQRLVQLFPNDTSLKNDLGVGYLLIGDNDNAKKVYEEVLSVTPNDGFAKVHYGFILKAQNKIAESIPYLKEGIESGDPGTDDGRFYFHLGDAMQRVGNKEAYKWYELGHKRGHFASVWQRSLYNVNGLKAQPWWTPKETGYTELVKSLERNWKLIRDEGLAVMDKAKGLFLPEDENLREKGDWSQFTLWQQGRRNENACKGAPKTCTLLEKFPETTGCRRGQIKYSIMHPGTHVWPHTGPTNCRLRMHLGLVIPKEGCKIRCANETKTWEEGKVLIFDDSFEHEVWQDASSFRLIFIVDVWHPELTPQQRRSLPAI
Assay: SPE-MS AspH inhibition assay (LOPAC screen at fixed 20 μM and IC50 dose-response), hydroxylation of cyclic peptide hFX-CP101–119
Format: biochemical

[1] = LOPAC compound at 20uM, plate 2, conversion of substrate peptide
[2] = LOPAC compound at 20uM, plate 2, normalised to DMSO and 2,4-PDCA controls
[3] = LOPAC compound at 20uM, plate 3, conversion of substrate peptide
[4] = AspH activity, fixed compound concentration 20 μM, initial LOPAC screen, 0.5%v/v DMSO, read-out: Inhibition at 20 µM [%]
[5] = LOPAC compound at fixed 20 uM, plate 1, normalised to DMSO and 2,4-PDCA controls
[6] = LOPAC compound at fixed 20 uM, substrate conversion, plate 1
[7] = LOPAC compound at 20uM, plate 2, normalised to DMSO and 2,4-PDCA controls, read-out: Plate 2 (% inhibition)
[8] = 50 nM His6-AspH315–758, 1.0 μM hFX-CP101–119, 3 μM 2OG, 2 μM Fe(II), 50 mM HEPES pH 7.5, 20 °C, mean ± SD, n = 2 (2,4-PDCA n = 10), read-out: IC50

SMILES | Plate 1 (% inhibition) [5] [%] | Plate 1 (% conversion) [6] [%] | also measured
O=C(c1ccc(Cl)cc1)N1CCN(c2ccc([N+](=O)[O-])c3ncccc23)CC1 [CPNQ] | – | – | Plate 2 (% conversion) [1]: 35.99%; Plate 2 (% inhibition) [2]: -0.10%
CC1(C)CCC(NC(=O)[C@@H](N)CCC(=O)O)CC1 [CR 2249] | – | – | Plate 3 (% conversion) [3]: 40.87%
O=C(c1ccc2c(c1)OCCO2)N1CCCCC1 [CX 546] | – | – | Plate 2 (% conversion) [1]: 39.70%; Plate 2 (% inhibition) [2]: -11.19%
[Ca+2].[Cl-].[Cl-] [Ca(II), CaCl2, reference compound] | – | – | IC50 metal ion, AspH [μM] (50 nM AspH, 2.0 μM Fe(II), Zn(OAc)2, NiSO4, CoCl2, MnCl2, CaCl2 as metal sources, n = 2, mean ± SD): do not show any effect; also recorded: does not perturb AspH activity; also recorded: inactive
O=C(/C=C/c1ccc(O)c(O)c1)OCCc1ccccc1 [Caffeic acid phenethyl ester, reference compound] | 98.53 | 2.78 | inhibition at 20 µM [4]: 98.5%
Cn1c(=O)c2c(ncn2C)n(C)c1=O [Caffeine] | -5.72 | 37.79 | –
CNc1ccc2oc(C[C@H]3O[C@@]4(CC[C@H]3C)O[C@H]([C@H](C)C(=O)c3ccc[nH]3)[C@H](C)C[C@H]4C)nc2c1C(=O)O [Calcimycin, calcimycin, reference compound] | – | – | Plate 1 (% conversion): 2.02%; IC50 (IC50 [μM]): 4.19 ± 0.1 µM; inhibition at 20 µM (read-out: Inhibition at 20 µM [%]): 101%
Clc1ccc(C(c2ccc(Cl)cc2)n2cc[n+](CC(OCc3ccc(Cl)cc3Cl)c3ccc(Cl)cc3Cl)c2)cc1 (stereo not drawn) [Calmidazolium chloride] | -67.38 | – | Plate 1 (% conversion): 58.50%
O=c1[nH]c(=S)[nH]c(-c2ccccc2)c1Cc1c(O)ccc2ccccc12 [Cambinol] | – | – | Plate 2 (% conversion) [1]: 25.50%; inhibition at 20 µM [7]: 31.2%
CC1(C(=O)O)C2CCC(O2)C1(C)C(=O)O (stereo not drawn) [Cantharidic Acid] | – | – | Plate 1 (% conversion): 25.92%; Plate 1 (% inhibition): 29.65%
C[C@@]12C(=O)OC(=O)[C@]1(C)[C@H]1CC[C@@H]2O1 [Cantharidin] | – | – | Plate 1 (% conversion): 17.40%; Plate 1 (% inhibition): 55.02%
Oc1cc2c(cc1O)CN(C(=S)NCCc1ccc(Cl)cc1)CCC2 [Capsazepine, capsazepine, reference compound] | – | – | IC50 [8]: 3.41 ± 0.28 µM; inhibition at 20 µM [4]: 99.7%; Plate 2 (% conversion) [1]: 2.59%; inhibition at 20 µM [7]: 99.7%
C[C@H](CS)C(=O)N1CCC[C@H]1C(=O)O [Captopril] | – | – | Plate 1 (% conversion): 35.34%; Plate 1 (% inhibition): 1.58%
C[N+](C)(C)CCOC(N)=O [Carbachol] | -3.17 | 36.94 | –
NC(=O)N1c2ccccc2C=Cc2ccccc21 [Carbamazepine] | 0.72 | 35.63 | –
CCN(CC)CCOCCOC(=O)C1(c2ccccc2)CCCC1 [Carbetapentane citrate] | 80.85 | 8.72 | –
CCCCCCNC(=O)n1cc(F)c(=O)[nH]c1=O [Carmofur] | – | – | % conversion: 37.69%; inhibition at 20 µM (LOPAC Plate 4, compound at 20 uM, read-out: % inhibition): -3.58%
O=NN(CCCl)C(=O)NCCCl [Carmustine] | -10.30 | – | Plate 1 (% conversion): 39.33%
CCN(CC)CCn1c(=O)c(Cc2ccc(OC)cc2)nc2ccccc21.Cl [Caroverine hydrochloride] | – | – | % conversion (LOPAC Plate 4, compound at 20 uM, substrate conversion): 34.53%
N[C@@H](C(=O)N[C@@H]1C(=O)N2C(C(=O)O)=C(Cl)CS[C@H]12)c1ccccc1 [Cefaclor] | 23.98 | 27.82 | –
Cc1nnc(SCC2=C(C(=O)O)N3C(=O)[C@@H](NC(=O)Cn4cnnn4)[C@H]3SC2)s1 [Cefazolin sodium] | 9.95 | 32.53 | –
CO[C@@]1(NC(=O)CSCC#N)C(=O)N2C(C(=O)O)=C(CSc3nnnn3C)CS[C@@H]21 [Cefmetazole sodium] | -3.81 | 37.15 | –
CO/N=C(\C(=O)N[C@@H]1C(=O)N2C(C(=O)O)=C(COC(C)=O)CS[C@H]12)c1csc(N)n1 [Cefotaxime sodium] | 3.71 | 34.63 | –
NC(=O)c1cc[n+](CC2=C(C(=O)[O-])N3C(=O)[C@@H](NC(=O)C(c4ccccc4)S(=O)(=O)[O-])[C@H]3SC2)cc1.O.[Na+] (stereo partly drawn) [Cefsulodin sodium salt hydrate] | 64.70 | 14.14 | –
CO/N=C(\C(=O)N[C@@H]1C(=O)N2C(C(=O)O)=C(CSc3nc(=O)c(=O)[nH]n3C)CS[C@H]12)c1csc(N)n1 [Ceftriaxone sodium] | -8.63 | 38.77 | –

SMILES | Plate 1 (% inhibition) [5] [%] | Plate 1 (% conversion) [6] [%] | also measured
Cc1ccc(-c2cc(C(F)(F)F)nn2-c2ccc(S(N)(=O)=O)cc2)cc1 [Celecoxib] | – | – | Plate 5 (% inhibition) (plate 5 (Pfitzer), test compounds at fixed 20 μM): -13.08%; Plate 5 (% conversion) (plate 5 (Pfitzer), test compounds at fixed 20 μM, mean conversion DMSO 32.88): 40.77%
CN(C)CCOC(=O)COc1ccc(Cl)cc1 [Centrophenoxine hydrochloride] | – | – | Plate 1 (% conversion): 36.66%; Plate 1 (% inhibition): -2.35%
CC1=C(C(=O)O)N2C(=O)[C@@H](NC(=O)[C@H](N)c3ccccc3)[C@H]2SC1.O [Cephalexin hydrate] | 14.49 | – | –
CC(=O)OCC1=C(C(=O)O)N2C(=O)[C@@H](NC(=O)Cc3cccs3)[C@H]2SC1 [Cephalothin sodium] | 9.86 | 32.56 | –
CC1=C(C(=O)O)N2C(=O)[C@@H](NC(=O)[C@H](N)C3=CCC=CC3)[C@H]2SC1 [Cephradine] | 23.03 | 28.14 | –
O=C(O)COCCN1CCN(C(c2ccccc2)c2ccc(Cl)cc2)CC1 (stereo not drawn) [Cetirizine dihydrochloride] | – | – | inhibition at 20 µM [7]: -5.77%
COc1ccc2c(c[n+](C)c3c4cc5c(cc4ccc23)OCO5)c1OC [Chelerythrine chloride] | 8.68 | – | Plate 1 (% conversion): 32.96%
O=C(O)c1cc(O)cc(C(=O)O)n1 [Chelidamic acid] | 48.94 | 19.44 | –
Cc1ncsc1CCCl.Cl [Chlormethiazole hydrochloride] | – | – | Plate 1 (% conversion): 33.94%; Plate 1 (% inhibition): 5.75%
CN1C(=O)CCS(=O)(=O)C1c1ccc(Cl)cc1 (stereo not drawn) [Chlormezanone] | – | – | Plate 2 (% conversion): 39.39%; inhibition at 20 µM (read-out: Plate 2 (% inhibition)): -10.3%
CCN(CC)CCCC(C)Nc1ccnc2cc(Cl)ccc12 (stereo not drawn) [Chloroquine diphosphate] | – | – | Plate 1 (% conversion): 38.59%; Plate 1 (% inhibition): -8.09%
NS(=O)(=O)c1cc2c(cc1Cl)N=CNS2(=O)=O [Chlorothiazide] | -4.46 | 37.37 | –
CN(C)CCCN1c2ccccc2Sc2ccc(Cl)cc21 [Chlorpromazine hydrochloride] | -29.45 | 45.76 | –
CCCNC(=O)NS(=O)(=O)c1ccc(Cl)cc1 [Chlorpropamide] | -3.59 | 37.08 | –
CN(C)CC/C=C1/c2ccccc2Sc2ccc(Cl)cc21 [Chlorprothixene hydrochloride] | -27.95 | 45.26 | –
C[N+](C)(C)CCO.[Br-] [Choline bromide] | – | – | Plate 1 (% conversion): 37.78%; Plate 1 (% inhibition): -5.68%
O=C(O)CCC(=O)O.c1ccc(C2(c3ccccc3)CC2C2=NCCN2)cc1 (stereo not drawn) [Cibenzoline succinate] | – | – | Plate 3 (% conversion): 24.00%
Cc1cc(C2CCCCC2)n(O)c(=O)c1 [Ciclopirox olamine, reference compound] | – | – | IC50 [8]: 4.39 ± 0.71 µM
CN(C(=O)CCCOc1ccc2[nH]c(=O)ccc2c1)C1CCCCC1 [Cilostamide] | -8.28 | 38.65 | –
O=C1CCc2cc(OCCCCc3nnnn3C3CCCCC3)ccc2N1 [Cilostazol] | -4.97 | 37.54 | –
CN/C(=N/CCSCc1nc[nH]c1C)NC#N [Cimetidine] | -0.45 | 36.02 | –
CCn1nc(C(=O)O)c(=O)c2cc3c(cc21)OCO3 [Cinoxacin] | -6.95 | 38.21 | –
CC(C)(Oc1ccc(C2CC2(Cl)Cl)cc1)C(=O)O (stereo not drawn) [Ciprofibrate] | -0.63 | 36.08 | –
c1ccc(C2CC2)c(OCC2=NCCN2)c1 [Cirazoline hydrochloride] | – | – | Plate 2 (% conversion) [1]: 38.17%; inhibition at 20 µM [7]: -6.62%
N.N.[Cl][Pt][Cl] [Cisplatin] | – | – | Plate 3 (% conversion) [3]: 31.15%
